Data as given in ChEMBL document CHEMBL1201862, “PubChem BioAssay data set” (2004).
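Protocol summary: plate cells (96-well), add compound at 5 concentrations, incubate 48 h, interpolate endpoints linearly. Here, GI50 denotes the concentration required for 50% inhibition of growth.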 Activity calls are given as the source filed them. No stated cut-off is given here; in the data, active = GI50 up to about 1.1 µM and inactive = higher.

Columns and labels:
Experiment in all cases: inhibition of tumour cell growth, NCI panel, 48 h
SK-OV-3 = tested on: SK-OV-3
NCI-H522 = tested on: NCI-H522
HL-60 = tested on: HL-60
M14 = tested on: M14
SF-268 = tested on: SF-268
NCI/ADR-RES = tested on: NCI/ADR-RES
CCRF-CEM = tested on: CCRF-CEM
T47D = tested on: T47D
ACHN = tested on: ACHN
SK-MEL-5 = tested on: SK-MEL-5
NCI-H23 = tested on: NCI-H23
SF-539 = tested on: SF-539
HOP-92 = tested on: HOP-92
OVCAR-8 = tested on: OVCAR-8
MOLT-4 = tested on: MOLT-4
OVCAR-3 = tested on: OVCAR-3
PC-3 = tested on: PC-3
SK-MEL-28 = tested on: SK-MEL-28
HOP-62 = tested on: HOP-62
DU-145 = tested on: DU-145

Compound | GI50 (SK-OV-3) | GI50 (NCI-H522) | GI50 (HL-60) | GI50 (M14) | GI50 (SF-268) | GI50 (NCI/ADR-RES) | GI50 (CCRF-CEM) | GI50 (T47D) | GI50 (ACHN) | GI50 (SK-MEL-5) | GI50 (NCI-H23) | GI50 (SF-539) | GI50 (HOP-92) | GI50 (OVCAR-8) | GI50 (MOLT-4) | GI50 (OVCAR-3) | GI50 (PC-3) | GI50 (SK-MEL-28) | GI50 (HOP-62) | GI50 (DU-145)
O=C1/C(=C\c2ccc(-c3ccc(Cl)cc3Cl)o2)SC2NC(COc3ccc(Cl)cc3)=NN12 (stereo not given) | 88.3 µM (inactive) | 55 µM (inactive) | 22.5 µM (inactive) | > 100 µM (inactive) | 36 µM (inactive) | 37.5 µM (inactive) | 16 µM (inactive) | 27.2 µM (inactive) | 53.7 µM (inactive) | 36.7 µM (inactive) | 53.2 µM (inactive) | 49 µM (inactive) | 26.5 µM (inactive) | 38.3 µM (inactive) | 31.8 µM (inactive) | 36 µM (inactive) | 64.7 µM (inactive) | > 100 µM (inactive) | 80.4 µM (inactive) | 65.6 µM (inactive)
CC(=O)Nc1nc(NC(C)=O)c2nc(CO)[nH]c2n1 | > 100 µM (inactive) | > 100 µM (inactive) | > 100 µM (inactive) | > 100 µM (inactive) | > 100 µM (inactive) | > 100 µM (inactive) | > 100 µM (inactive) | > 100 µM (inactive) | > 100 µM (inactive) | > 100 µM (inactive) | > 100 µM (inactive) | > 100 µM (inactive) | > 100 µM (inactive) | > 100 µM (inactive) | > 100 µM (inactive) | > 100 µM (inactive) | > 100 µM (inactive) | > 100 µM (inactive) | > 100 µM (inactive) | > 100 µM (inactive)
N#CC(C#N)=Cn1c(=S)[nH]c2ccc([N+](=O)[O-])cc21 | > 100 µM (inactive) | > 100 µM (inactive) | > 100 µM (inactive) | > 100 µM (inactive) | > 100 µM (inactive) | > 100 µM (inactive) | > 100 µM (inactive) | > 100 µM (inactive) | > 100 µM (inactive) | > 100 µM (inactive) | > 100 µM (inactive) | > 100 µM (inactive) | > 100 µM (inactive) | > 100 µM (inactive) | > 100 µM (inactive) | > 100 µM (inactive) | > 100 µM (inactive) | > 100 µM (inactive) | > 100 µM (inactive) | > 100 µM (inactive)
CCOc1ccc(Nc2nc(N)nc(N)c2N=O)cc1 | > 100 µM (inactive) | 55.5 µM (inactive) | > 100 µM (inactive) | > 100 µM (inactive) | 89.7 µM (inactive) | 47.1 µM (inactive) | > 100 µM (inactive) | 19.2 µM (inactive) | 42.1 µM (inactive) | 49.5 µM (inactive) | 59.7 µM (inactive) | 80.5 µM (inactive) | 17.9 µM (inactive) | 51.1 µM (inactive) | 17.6 µM (inactive) | 24.6 µM (inactive) | 28.4 µM (inactive) | 66.5 µM (inactive) | 50.1 µM (inactive) | 38 µM (inactive)
COc1ccc(/C=C/C(=O)c2cc(OC)cc(OC)c2)cc1 | 6.71 µM (inactive) | 2.22 µM (inactive) | 0.151 µM (active) | 2.45 µM (inactive) | 5.4 µM (inactive) | 2.69 µM (inactive) | 2.07 µM (inactive) | 3.11 µM (inactive) | 4.7 µM (inactive) | 10.3 µM (inactive) | 2.58 µM (inactive) | 1.05 µM (active) | 20.8 µM (inactive) | 3.39 µM (inactive) | 4.63 µM (inactive) | 4.02 µM (inactive) | 6.12 µM (inactive) | 5.97 µM (inactive) | 3.78 µM (inactive) | 3.24 µM (inactive)
Cc1cccc(/C=C2/C(=O)Nc3ccccc32)n1 | 18.1 µM (inactive) | 12.7 µM (inactive) | 9.95 µM (inactive) | 15.1 µM (inactive) | 14.7 µM (inactive) | 14.6 µM (inactive) | 15.4 µM (inactive) | 4.95 µM (inactive) | 10.3 µM (inactive) | 12.9 µM (inactive) | 10.4 µM (inactive) | 20.5 µM (inactive) | 7.82 µM (inactive) | 23.3 µM (inactive) | 7.5 µM (inactive) | 14.2 µM (inactive) | 16.7 µM (inactive) | 24.2 µM (inactive) | 16.6 µM (inactive) | 13.2 µM (inactive)
CN(C)CCn1c(=O)c2ccc(NCCN3CCNCC3)c3c(=O)c4ccccc4n(c1=O)c23 | 3.45 µM (inactive) | 1.07 µM (active) | 2.59 µM (inactive) | 4.84 µM (inactive) | 1.13 µM (inactive) | 9.93 µM (inactive) | 0.207 µM (active) | 9.68 µM (inactive) | 1.27 µM (inactive) | 3.47 µM (inactive) | 2.3 µM (inactive) | 0.473 µM (active) | 0.776 µM (active) | 1.91 µM (inactive) | 0.0294 µM (active) | 5.05 µM (inactive) | 1.79 µM (inactive) | 6.61 µM (inactive) | 4.06 µM (inactive) | 3.39 µM (inactive)
COC1=C(Cl)C(=O)c2c(O)ccc(O)c2C1=O | 16 µM (inactive) | 0.119 µM (active) | 0.0393 µM (active) | 0.541 µM (active) | 2.43 µM (inactive) | 0.843 µM (active) | 0.18 µM (active) | 1.03 µM (active) | 1.02 µM (active) | 1.4 µM (inactive) | 1.91 µM (inactive) | 0.578 µM (active) | 1.78 µM (inactive) | 2 µM (inactive) | 0.0372 µM (active) | 0.476 µM (active) | 3.07 µM (inactive) | 2.58 µM (inactive) | 0.873 µM (active) | 2.38 µM (inactive)
COc1cc(OC)c(OC)cc1/C=C/c1ccc2ccccc2n1 | > 10 µM (inactive) | 5.41 µM (inactive) | 3.27 µM (inactive) | > 10 µM (inactive) | > 10 µM (inactive) | 7.6 µM (inactive) | 6.17 µM (inactive) | 6.97 µM (inactive) | > 10 µM (inactive) | 8.77 µM (inactive) | 2.89 µM (inactive) | 3.53 µM (inactive) | 5.57 µM (inactive) | > 10 µM (inactive) | 3.78 µM (inactive) | > 10 µM (inactive) | 6.08 µM (inactive) | > 10 µM (inactive) | > 10 µM (inactive) | > 10 µM (inactive)
